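Five concentrations, 48 hours, 96-well plates. TGI marks complete inhibition of growth.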
Each molecule was assayed on M14 melanoma (assay: NCI tumour cell line growth inhibition, 48 h).

Going from `O=c1[nH]nc(-c2ccccc2)n1-n1cnnc1` to `CN(C)CCCNC(=O)c1cn2c(ccc3sc4ccccc4c(=O)c32)n1`, the TGI falls from > 100 µM to 28.1 µM.

`C[C@H](CCC(=O)NCC(=O)O)[C@H]1CC[C@H]2[C@@H]3[C@H](O)C[C@@H]4C[C@H](O)CC[C@]4(C)[C@H]3CC[C@]12C` and `CC(C)NC(=O)OCc1c(COC(=O)NC(C)C)c(-c2cc[n+](COC(=O)C3CCCCC3)cc2)n2c1CCC2` cannot be ordered by TGI: > 100 µM for the first, > 100 µM for the second.

`Cc1ccc(NC(=O)CC(=O)n2nc(C)c(N=Nc3cccc(C)c3)c2C)cc1` and `Cc1ccc2c(c1C)C(=O)/C(=C/c1cccc(C)c1C(=O)O)C2` cannot be ordered by TGI: > 100 µM for the first, > 100 µM for the second.

`N#C/C(=C\c1ccc2[nH]ccc2c1)C(=O)c1ccc(O)c(O)c1` and `O=S(=O)(O)c1cc(S(=O)(=O)O)c2c(N=Nc3ccc(N=Nc4ccccc4)cc3)c(O)ccc2c1` cannot be ordered by TGI: > 100 µM for the first, > 100 µM for the second.

`COC1CC(OC2C(C)OC(OC3C(C)OC(OC4C(C)OC(O[C@H]5CC[C@@]6(C)C(=CC[C@]7(O)[C@@H]6C[C@@H](O)[C@@]6(C)[C@]7(O)CC[C@@]6(O)C(C)=O)C5)CC4OC)CC3OC)CC2OC)OC(C)C1O` (stereo not given in full) and `CC(C)(C)[Si](C)(C)OC[C@H](/C=C\CCCC(=O)O)NC1(c2ccccc2)c2ccccc2-c2ccccc21` cannot be ordered by TGI: > 12.5 µM for the first, 38.8 µM for the second.

Going from `O=[N+]([O-])/C(C(Cl)=C(Cl)Cl)=C(/Nc1ccccc1)Sc1ccccc1` to `CN(C)CCNC(=O)c1c(O)ccc2c1c1c(n2CCc2ccccc2)C(=O)c2ccccc2C1=O`, the TGI falls from 36.5 µM to 3.47 µM (11-fold).

`CC/C(N)=N\NC(=O)OC(C)(C)C` and `O=P(O)(O)CN1CCNCCN(CP(=O)(O)O)CC1` cannot be ordered by TGI: > 100 µM for the first, > 100 µM for the second.

For `Cc1csc(-n2c(C)nc3cc(Cl)ccc3c2=O)n1`, the TGI was > 100 µM.

What follows are molecules tested on MCF7 breast (assay: NCI tumour cell line growth inhibition, 48 h).

Compared with `O=c1[nH]nc(-c2ccccc2)n1-n1cnnc1`, `CN(C)CCCNC(=O)c1cn2c(ccc3sc4ccccc4c(=O)c32)n1` is lower in TGI: > 100 µM for the first, 8.48 µM for the second.

`C[C@H](CCC(=O)NCC(=O)O)[C@H]1CC[C@H]2[C@@H]3[C@H](O)C[C@@H]4C[C@H](O)CC[C@]4(C)[C@H]3CC[C@]12C` and `CC(C)NC(=O)OCc1c(COC(=O)NC(C)C)c(-c2cc[n+](COC(=O)C3CCCCC3)cc2)n2c1CCC2` cannot be ordered by TGI: > 100 µM for the first, > 100 µM for the second.

`Cc1ccc(NC(=O)CC(=O)n2nc(C)c(N=Nc3cccc(C)c3)c2C)cc1` and `Cc1ccc2c(c1C)C(=O)/C(=C/c1cccc(C)c1C(=O)O)C2` cannot be ordered by TGI: > 100 µM for the first, > 65.2 µM for the second.

`N#C/C(=C\c1ccc2[nH]ccc2c1)C(=O)c1ccc(O)c(O)c1` and `O=S(=O)(O)c1cc(S(=O)(=O)O)c2c(N=Nc3ccc(N=Nc4ccccc4)cc3)c(O)ccc2c1` cannot be ordered by TGI: > 100 µM for the first, > 100 µM for the second.

`COC1CC(OC2C(C)OC(OC3C(C)OC(OC4C(C)OC(O[C@H]5CC[C@@]6(C)C(=CC[C@]7(O)[C@@H]6C[C@@H](O)[C@@]6(C)[C@]7(O)CC[C@@]6(O)C(C)=O)C5)CC4OC)CC3OC)CC2OC)OC(C)C1O` (stereo not given in full) and `CC(C)(C)[Si](C)(C)OC[C@H](/C=C\CCCC(=O)O)NC1(c2ccccc2)c2ccccc2-c2ccccc21` cannot be ordered by TGI: > 12.5 µM for the first, 34.5 µM for the second.

Compared with `O=[N+]([O-])/C(C(Cl)=C(Cl)Cl)=C(/Nc1ccccc1)Sc1ccccc1`, `CN(C)CCNC(=O)c1c(O)ccc2c1c1c(n2CCc2ccccc2)C(=O)c2ccccc2C1=O` is 6.2-fold lower in TGI: 75.2 µM for the first, 12.1 µM for the second.

`CC/C(N)=N\NC(=O)OC(C)(C)C` and `O=P(O)(O)CN1CCNCCN(CP(=O)(O)O)CC1` cannot be ordered by TGI: > 100 µM for the first, > 100 µM for the second.

For `Cc1csc(-n2c(C)nc3cc(Cl)ccc3c2=O)n1`, the TGI was > 100 µM.

Each molecule was assayed on NCI-H226 lung (assay: NCI tumour cell line growth inhibition, 48 h).

Going from `O=c1[nH]nc(-c2ccccc2)n1-n1cnnc1` to `CN(C)CCCNC(=O)c1cn2c(ccc3sc4ccccc4c(=O)c32)n1`, the TGI falls from > 100 µM to 36.1 µM.

`C[C@H](CCC(=O)NCC(=O)O)[C@H]1CC[C@H]2[C@@H]3[C@H](O)C[C@@H]4C[C@H](O)CC[C@]4(C)[C@H]3CC[C@]12C` and `CC(C)NC(=O)OCc1c(COC(=O)NC(C)C)c(-c2cc[n+](COC(=O)C3CCCCC3)cc2)n2c1CCC2` cannot be ordered by TGI: > 100 µM for the first, > 100 µM for the second.

`Cc1ccc(NC(=O)CC(=O)n2nc(C)c(N=Nc3cccc(C)c3)c2C)cc1` and `Cc1ccc2c(c1C)C(=O)/C(=C/c1cccc(C)c1C(=O)O)C2` cannot be ordered by TGI: > 100 µM for the first, > 100 µM for the second.

`N#C/C(=C\c1ccc2[nH]ccc2c1)C(=O)c1ccc(O)c(O)c1` and `O=S(=O)(O)c1cc(S(=O)(=O)O)c2c(N=Nc3ccc(N=Nc4ccccc4)cc3)c(O)ccc2c1` cannot be ordered by TGI: > 100 µM for the first, > 100 µM for the second.

`COC1CC(OC2C(C)OC(OC3C(C)OC(OC4C(C)OC(O[C@H]5CC[C@@]6(C)C(=CC[C@]7(O)[C@@H]6C[C@@H](O)[C@@]6(C)[C@]7(O)CC[C@@]6(O)C(C)=O)C5)CC4OC)CC3OC)CC2OC)OC(C)C1O` (stereo not given in full) and `CC(C)(C)[Si](C)(C)OC[C@H](/C=C\CCCC(=O)O)NC1(c2ccccc2)c2ccccc2-c2ccccc21` cannot be ordered by TGI: > 12.5 µM for the first, 26 µM for the second.

`O=[N+]([O-])/C(C(Cl)=C(Cl)Cl)=C(/Nc1ccccc1)Sc1ccccc1` and `CN(C)CCNC(=O)c1c(O)ccc2c1c1c(n2CCc2ccccc2)C(=O)c2ccccc2C1=O` are within 1.5-fold of each other in TGI: 40.1 µM for the first, 35.2 µM for the second.

`CC/C(N)=N\NC(=O)OC(C)(C)C` and `O=P(O)(O)CN1CCNCCN(CP(=O)(O)O)CC1` cannot be ordered by TGI: > 100 µM for the first, > 86.8 µM for the second.

With `Cc1csc(-n2c(C)nc3cc(Cl)ccc3c2=O)n1` the TGI was > 100 µM.

What follows are molecules tested on NCI-H522 lung (assay: NCI tumour cell line growth inhibition, 48 h).

First: O=c1[nH]nc(-c2ccccc2)n1-n1cnnc1
Second: CN(C)CCCNC(=O)c1cn2c(ccc3sc4ccccc4c(=O)c32)n1
The TGI of the first is higher: > 100 µM for the first, 32.4 µM for the second.

`C[C@H](CCC(=O)NCC(=O)O)[C@H]1CC[C@H]2[C@@H]3[C@H](O)C[C@@H]4C[C@H](O)CC[C@]4(C)[C@H]3CC[C@]12C` and `CC(C)NC(=O)OCc1c(COC(=O)NC(C)C)c(-c2cc[n+](COC(=O)C3CCCCC3)cc2)n2c1CCC2` cannot be ordered by TGI: > 100 µM for the first, > 100 µM for the second.

`Cc1ccc(NC(=O)CC(=O)n2nc(C)c(N=Nc3cccc(C)c3)c2C)cc1` and `Cc1ccc2c(c1C)C(=O)/C(=C/c1cccc(C)c1C(=O)O)C2` cannot be ordered by TGI: > 100 µM for the first, > 100 µM for the second.

`N#C/C(=C\c1ccc2[nH]ccc2c1)C(=O)c1ccc(O)c(O)c1` and `O=S(=O)(O)c1cc(S(=O)(=O)O)c2c(N=Nc3ccc(N=Nc4ccccc4)cc3)c(O)ccc2c1` cannot be ordered by TGI: > 100 µM for the first, > 100 µM for the second.

`COC1CC(OC2C(C)OC(OC3C(C)OC(OC4C(C)OC(O[C@H]5CC[C@@]6(C)C(=CC[C@]7(O)[C@@H]6C[C@@H](O)[C@@]6(C)[C@]7(O)CC[C@@]6(O)C(C)=O)C5)CC4OC)CC3OC)CC2OC)OC(C)C1O` (stereo not given in full) and `CC(C)(C)[Si](C)(C)OC[C@H](/C=C\CCCC(=O)O)NC1(c2ccccc2)c2ccccc2-c2ccccc21` cannot be ordered by TGI: > 12.5 µM for the first, > 100 µM for the second.

`O=[N+]([O-])/C(C(Cl)=C(Cl)Cl)=C(/Nc1ccccc1)Sc1ccccc1` and `CN(C)CCNC(=O)c1c(O)ccc2c1c1c(n2CCc2ccccc2)C(=O)c2ccccc2C1=O` are within 1.5-fold of each other in TGI: 33.6 µM for the first, 23 µM for the second.

`CC/C(N)=N\NC(=O)OC(C)(C)C` and `O=P(O)(O)CN1CCNCCN(CP(=O)(O)O)CC1` cannot be ordered by TGI: > 100 µM for the first, > 100 µM for the second.

Molecule `Cc1csc(-n2c(C)nc3cc(Cl)ccc3c2=O)n1` has a TGI of 60.6 µM.

Source: PubChem BioAssay (NCI)
